ChEMBL document CHEMBL1155809, “Design, synthesis, and antihepatocellular carcinoma activity of nitric oxide releasing derivatives of oleanolic acid” (J Med Chem, 2008)
Calls of active or inactive are those of the source. No cut-off for these calls is given here.

Key:
[1] = tested on: MCF7; assay: Cytotoxicity against human MCF7 cells assessed as cell death by lactate dehydrogenase release assay; assay type: functional, cell-based
[2] = tested on: MCF7; assay: Cytotoxicity against human MCF7 cells assessed as levels of nitric oxide production at 100 uM after 30 to 300 mins by colorimetric assay; assay type: functional, cell-based
[3] = tested on: Hep 3B2; assay: Cytotoxicity against human Hep3B cells assessed as levels of nitric oxide production at 100 uM after 30 to 300 mins by colorimetric assay; assay type: functional, cell-based
[4] = tested on: HEK293; assay: Cytotoxicity against human HEK293 cells assessed as levels of nitric oxide production at 100 uM after 30 to 300 mins by colorimetric assay; assay type: functional, cell-based
[5] = tested on: HepG2; assay: Cytotoxicity against human HepG2 cells assessed as levels of nitric oxide production at 100 uM after 30 to 300 mins by colorimetric assay; assay type: functional, cell-based
[6] = Cytotoxicity against human Hep3B cells assessed as cell death at 0.001 uM after 24 hrs by lactate dehydrogenase release assay; assay type: functional, Hep 3B2
[7] = tested on: HepG2; assay: Cytotoxicity against human HepG2 cells assessed as cell death at 0.01 uM after 24 hrs by lactate dehydrogenase release assay; assay type: functional
[8] = tested on: HepG2; assay: Cytotoxicity against human HepG2 cells assessed as cell death at 0.001 uM after 24 hrs by lactate dehydrogenase release assay; assay type: functional
[9] = tested on: HepG2; assay: Cytotoxicity against human HepG2 cells assessed as cell death at 0.1 uM after 24 hrs by lactate dehydrogenase release assay; assay type: functional
[10] = tested on: HEK293; assay: Cytotoxicity against HEK293 cells assessed as cell death by lactate dehydrogenase release assay; assay type: functional, cell-based; settings: Homo sapiens
[11] = Cytotoxicity against human Hep3B cells assessed as cell death at 1 uM after 24 hrs by lactate dehydrogenase release assay; assay type: functional, Hep 3B2
[12] = tested on: PC-3; assay: Cytotoxicity against human PC3 cells assessed as levels of nitric oxide production at 100 uM after 30 to 300 mins by colorimetric assay; assay type: functional, cell-based
[13] = tested on: PC-3; assay: Cytotoxicity against human PC3 cells assessed as cell death by lactate dehydrogenase release assay; assay type: functional, cell-based
[14] = tested on: HeLa; assay: Cytotoxicity against human HeLa cells assessed as levels of nitric oxide production at 100 uM after 30 to 300 mins by colorimetric assay; assay type: functional, cell-based
[15] = tested on: HepG2; assay: Cytotoxicity against human HepG2 cells assessed as cell death at 1 uM after 24 hrs by lactate dehydrogenase release assay; assay type: functional
[16] = Cytotoxicity against human Hep3B cells assessed as cell death at 0.1 uM after 24 hrs by lactate dehydrogenase release assay; assay type: functional, Hep 3B2
[17] = tested on: HeLa; assay: Cytotoxicity against human HeLa cells assessed as cell death by lactate dehydrogenase release assay; assay type: functional, cell-based
[18] = Cytotoxicity against human Hep3B cells assessed as cell death at 0.01 uM after 24 hrs by lactate dehydrogenase release assay; assay type: functional, Hep 3B2
[19] = tested on: Hep 3B2; assay: Cytotoxicity against human Hep3B cells assessed as cell death after 24 hrs by lactate dehydrogenase release assay; assay type: functional, cell-based
[20] = tested on: HepG2; assay: Cytotoxicity against human HepG2 cells assessed as cell death after 24 hrs by lactate dehydrogenase release assay; assay type: functional, cell-based

In the case of C[C@H](CCC(=O)O)[C@H]1CC[C@H]2[C@@H]3[C@@H](O)C[C@@H]4C[C@H](O)CC[C@]4(C)[C@H]3CC[C@]12C [URSODIOL], the Activity [1] is reported as “inactive”, the Activity [2] is reported as “inactive” and the Activity [3] is reported as “Active”. The Activity [4] was “inactive”, the Activity [5] was “Active” and the Activity [6] was 0%. For the same compound, the Activity [7] was 0%, the Activity [8] was 0% and the Activity [9] was 0%. The Activity [10] was “inactive”, the Activity [11] was 0% and the Activity [12] was “inactive”. The Activity [13] was “inactive”, the Activity [14] was “inactive” and the Activity [15] was 0%. For the same compound, the Activity [16] was 0%, the Activity [17] was “inactive” and the Activity [18] was 0%.
For CC1(C)CC[C@]2(C(=O)O)CC[C@]3(C)C(=CC[C@@H]4[C@@]5(C)CC[C@H](OC(=O)CCC(=O)OCc6cccc(Oc7no[n+]([O-])c7S(=O)(=O)c7ccccc7)c6)C(C)(C)[C@@H]5CC[C@]43C)[C@@H]2C1, the Activity [1] was “inactive”, the Activity [2] was “inactive” and the Activity [3] was “Active”. For the same compound, the Activity [4] was “inactive”, the Activity [5] was “Active” and the Activity [6] was 0%. For the same compound, the Activity [7] was 0%, the Activity [8] was 0% and the Activity [9] was 0%. For the same compound, the Activity [10] was “inactive”, the Activity [11] was 0% and the Activity [12] was “inactive”. For the same compound, the Activity [13] was “inactive”, the Activity [14] was “inactive” and the Activity [15] was 0%. The Activity [16] was 0%, the Activity [17] was “inactive” and the Activity [18] was 0%.
With CC1(C)CC[C@]2(C(=O)OCc3ccc(Oc4no[n+]([O-])c4S(=O)(=O)c4ccccc4)cc3)CC[C@]3(C)C(=CC[C@@H]4[C@@]5(C)CC[C@H](OC(=O)C(F)(F)F)C(C)(C)[C@@H]5CC[C@]43C)[C@@H]2C1 the Activity [19] was “inactive” and the Activity [20] was “inactive”.
For CC1(C)CC[C@]2(C(=O)OCc3ccccc3)CC[C@]3(C)C(=CC[C@@H]4[C@@]5(C)CC[C@H](OC(=O)CCC(=O)OCc6c(-c7ccccc7)no[n+]6[O-])C(C)(C)[C@@H]5CC[C@]43C)[C@@H]2C1, the Activity [19] was “inactive” and the Activity [20] was “inactive”.
For CC1(C)CC[C@]2(C(=O)O)CC[C@]3(C)C(=CC[C@@H]4[C@@]5(C)CC[C@H](OC(=O)CCC(=O)Oc6cccc(OCc7c(-c8ccccc8)no[n+]7[O-])c6)C(C)(C)[C@@H]5CC[C@]43C)[C@@H]2C1, the Activity [19] was “inactive” and the Activity [20] was “inactive”.
For CC1(C)CC[C@]2(C(=O)OCCOCCOc3no[n+]([O-])c3S(=O)(=O)c3ccccc3)CC[C@]3(C)C(=CC[C@@H]4[C@@]5(C)CC[C@H](OC(=O)C(F)(F)F)C(C)(C)[C@@H]5CC[C@]43C)[C@@H]2C1, the Activity [19] was “inactive” and the Activity [20] was “inactive”.
For CC1(C)CC[C@]2(C(=O)OCc3ccccc3)CC[C@]3(C)C(=CC[C@@H]4[C@@]5(C)CC[C@H](OC(=O)CCC(=O)OCc6cccc(Oc7no[n+]([O-])c7S(=O)(=O)c7ccccc7)c6)C(C)(C)[C@@H]5CC[C@]43C)[C@@H]2C1, the Activity [19] was “inactive” and the Activity [20] was “inactive”.
For CC1(C)CC[C@]2(C(=O)O)CC[C@]3(C)C(=CC[C@@H]4[C@@]5(C)CC[C@H](OC(=O)CCC(=O)NCCOc6no[n+]([O-])c6S(=O)(=O)c6ccccc6)C(C)(C)[C@@H]5CC[C@]43C)[C@@H]2C1, the Activity [1] was “inactive”, the Activity [2] was “inactive” and the Activity [3] was “Active”. The Activity [4] was “inactive”, the Activity [5] was “Active” and the Activity [6] was 0%. For the same compound, the Activity [7] was 8.51%, the Activity [8] was 0% and the Activity [9] was 13.01%. For the same compound, the Activity [10] was “inactive”, the Activity [11] was 66.21% and the Activity [12] was “inactive”. The Activity [13] was “inactive”, the Activity [14] was “inactive” and the Activity [15] was 74.53%. For the same compound, the Activity [16] was 16.34%, the Activity [17] was “inactive” and the Activity [18] was 5.26%.
In the case of CC1(C)CC[C@]2(C(=O)OCC#CCOc3no[n+]([O-])c3S(=O)(=O)c3ccccc3)CC[C@]3(C)C(=CC[C@@H]4[C@@]5(C)CC[C@H](OC(=O)C(F)(F)F)C(C)(C)[C@@H]5CC[C@]43C)[C@@H]2C1, the Activity [19] is reported as “inactive” and the Activity [20] is reported as “inactive”.
With CC1(C)CC[C@]2(C(=O)OCc3ccccc3)CC[C@]3(C)C(=CC[C@@H]4[C@@]5(C)CC[C@H](OC(=O)CCC(=O)OCc6ccc(Oc7no[n+]([O-])c7S(=O)(=O)c7ccccc7)cc6)C(C)(C)[C@@H]5CC[C@]43C)[C@@H]2C1 the Activity [19] was “inactive” and the Activity [20] was “inactive”.
For CC1(C)CC[C@]2(C(=O)O)CC[C@]3(C)C(=CC[C@@H]4[C@@]5(C)CC[C@H](OC(=O)CCC(=O)OCc6cccc(OCc7c(-c8ccccc8)no[n+]7[O-])c6)C(C)(C)[C@@H]5CC[C@]43C)[C@@H]2C1, the Activity [19] was “inactive” and the Activity [20] was “inactive”.
With CCOC(=O)[C@]12CCC(C)(C)C[C@H]1C1=CC[C@@H]3[C@@]4(C)CC[C@H](OC(=O)CCC(=O)OC(C)CCOc5no[n+]([O-])c5S(=O)(=O)c5ccccc5)C(C)(C)[C@@H]4CC[C@@]3(C)[C@]1(C)CC2 (stereo not given in full) the Activity [19] was “inactive” and the Activity [20] was “inactive”.
In the case of CCOC(=O)[C@]12CCC(C)(C)C[C@H]1C1=CC[C@@H]3[C@@]4(C)CC[C@H](OC(=O)CCC(=O)OCc5ccc(OCc6c(-c7ccccc7)no[n+]6[O-])cc5)C(C)(C)[C@@H]4CC[C@@]3(C)[C@]1(C)CC2, the Activity [19] is reported as “inactive” and the Activity [20] is reported as “inactive”.
In the case of CC1(C)CC[C@]2(C(=O)OCc3cccc(OCc4c(-c5ccccc5)no[n+]4[O-])c3)CC[C@]3(C)C(=CC[C@@H]4[C@@]5(C)CC[C@H](O)C(C)(C)[C@@H]5CC[C@]43C)[C@@H]2C1, the Activity [19] is reported as “inactive” and the Activity [20] is reported as “inactive”.
With CCOC(=O)[C@]12CCC(C)(C)C[C@H]1C1=CC[C@@H]3[C@@]4(C)CC[C@H](OC(=O)CCC(=O)OCCOCCOc5no[n+]([O-])c5S(=O)(=O)c5ccccc5)C(C)(C)[C@@H]4CC[C@@]3(C)[C@]1(C)CC2 the Activity [19] was “inactive” and the Activity [20] was “inactive”.
For CC1(C)CC[C@]2(C(=O)OCc3ccc(OCc4c(-c5ccccc5)no[n+]4[O-])cc3)CC[C@]3(C)C(=CC[C@@H]4[C@@]5(C)CC[C@H](OC(=O)C(F)(F)F)C(C)(C)[C@@H]5CC[C@]43C)[C@@H]2C1, the Activity [19] was “inactive” and the Activity [20] was “inactive”.
For CC1(C)CC[C@]2(C(=O)OCc3c(-c4ccccc4)no[n+]3[O-])CC[C@]3(C)C(=CC[C@@H]4[C@@]5(C)CC[C@H](O)C(C)(C)[C@@H]5CC[C@]43C)[C@@H]2C1, the Activity [19] was “inactive” and the Activity [20] was “inactive”.
For CC1(C)CC[C@]2(C(=O)O)CC[C@]3(C)C(=CC[C@@H]4[C@@]5(C)CC[C@H](OC(=O)CCC(=O)OCc6ccc(Oc7no[n+]([O-])c7S(=O)(=O)c7ccccc7)cc6)C(C)(C)[C@@H]5CC[C@]43C)[C@@H]2C1, the Activity [19] was “inactive” and the Activity [20] was “inactive”.
In the case of CC1(C)CC[C@]2(C(=O)OCCCCOc3no[n+]([O-])c3S(=O)(=O)c3ccccc3)CC[C@]3(C)C(=CC[C@@H]4[C@@]5(C)CC[C@H](OC(=O)C(F)(F)F)C(C)(C)[C@@H]5CC[C@]43C)[C@@H]2C1, the Activity [19] is reported as “inactive” and the Activity [20] is reported as “inactive”.
In the case of CC1(C)CC[C@]2(C(=O)OCc3ccccc3)CC[C@]3(C)C(=CC[C@@H]4[C@@]5(C)CC[C@H](OC(=O)CCC(=O)OCCCCOc6no[n+]([O-])c6S(=O)(=O)c6ccccc6)C(C)(C)[C@@H]5CC[C@]43C)[C@@H]2C1, the Activity [19] is reported as “inactive” and the Activity [20] is reported as “inactive”.
In the case of CC1(C)CC[C@]2(C(=O)OCCCCOc3no[n+]([O-])c3S(=O)(=O)c3ccccc3)CC[C@]3(C)C(=CC[C@@H]4[C@@]5(C)CC[C@H](O)C(C)(C)[C@@H]5CC[C@]43C)[C@@H]2C1, the Activity [19] is reported as “inactive” and the Activity [20] is reported as “inactive”.
For CC1(C)CC[C@]2(C(=O)OCc3cccc(OCc4c(-c5ccccc5)no[n+]4[O-])c3)CC[C@]3(C)C(=CC[C@@H]4[C@@]5(C)CC[C@H](OC(=O)C(F)(F)F)C(C)(C)[C@@H]5CC[C@]43C)[C@@H]2C1, the Activity [19] was “inactive” and the Activity [20] was “inactive”.
With CC(CCOc1no[n+]([O-])c1S(=O)(=O)c1ccccc1)OC(=O)CCC(=O)O[C@H]1CC[C@]2(C)[C@H]3CC=C4[C@@H]5CC(C)(C)CC[C@]5(C(=O)OCc5ccccc5)CC[C@@]4(C)[C@]3(C)CC[C@H]2C1(C)C (stereo not given in full) the Activity [19] was “inactive” and the Activity [20] was “inactive”.
With CC1(C)CC[C@]2(C(=O)OCc3c(-c4ccccc4)no[n+]3[O-])CC[C@]3(C)C(=CC[C@@H]4[C@@]5(C)CC[C@H](OC(=O)C(F)(F)F)C(C)(C)[C@@H]5CC[C@]43C)[C@@H]2C1 the Activity [19] was “inactive” and the Activity [20] was “inactive”.
With CCOC(=O)[C@]12CCC(C)(C)C[C@H]1C1=CC[C@@H]3[C@@]4(C)CC[C@H](OC(=O)CCC(=O)OCc5cccc(OCc6c(-c7ccccc7)no[n+]6[O-])c5)C(C)(C)[C@@H]4CC[C@@]3(C)[C@]1(C)CC2 the Activity [19] was “inactive” and the Activity [20] was “inactive”.
In the case of CC1(C)CC[C@]2(C(=O)O)CC[C@]3(C)C(=CC[C@@H]4[C@@]5(C)CC[C@H](OC(=O)CCC(=O)OCc6ccc(OCc7c(-c8ccccc8)no[n+]7[O-])cc6)C(C)(C)[C@@H]5CC[C@]43C)[C@@H]2C1, the Activity [19] is reported as “inactive” and the Activity [20] is reported as “inactive”.
